Patent US12522582B2 (Gilead Sciences, Inc., priority 2022, dated 2026)

Assays:
[1] = MT-4 CC50 Assay (CellTiter Glo); type: cell-based; settings: human, MT-4 cells, luminescence, read-out: CC50-MT4
Procedure: Compounds were tested in 384-well plates: 18 compounds in duplex. Compounds were diluted in 7 points, 3-fold with DMSO by Bravo. Assay plate, which contains 20 uL medium with compounds, was seeded 2000 MT-4 cells in 20 uL/well by Multi-drop to start the assay. The plate was incubated at 37° C. for 5 days. On 6th day, the CellTiter Glo 40 uL was added in each well. Luminescence was read by Victor II.

[2] = system: HSV-2 virus (MS strain); test: HSV-2 Cellomics Assay (immunofluorescence of HSV protein gD in infected ARPE-19 cells); settings: Human alphaherpesvirus 2, ARPE-19, 16 h
Procedure: Compounds were tested for their ability to inhibit HSV-2 replication by monitoring the expression of the HSV protein gD using a high-throughput immunofluorescence-based assay. 10-dose, 3-fold serial dilutions of compounds were prepared at starting concentrations of 0.2 or 2 mM in 100% DMSO. […] The final starting concentration in the assay was either 1 or 10 μM. DMSO (no compound) and pritelivir were included on each microplate as negative and positive controls, respectively.
Prior to confluence, cells were transferred to a centrifuge tube and spun for 5 minutes at 1000 rpm. Cells were resuspended in assay medium (DMEM/F-12 Glutamax, 2% FBS, 1% Penicillin-Streptomycin) and counted. Cell density was adjusted to 150,000 cells/ml and infected with HSV-2 virus (MS strain, ATCC cat #VR-540) at a MOI of 0.06 in a 50 ml conical tube for 1 hour under constant rocking. Cells were then spun for 5 minutes at 1000 rpm and the media replaced with assay medium containing either 2% FBS or 10% human serum (EMD Millipore cat #S1-100 ML). 50 μl of the infection suspension were added into microplate wells that were pre-spotted with compounds (7,500 cells per well). Plates were incubated for 16 hours at 37° C.
After a 30-minute incubation at room temperature, plates were washed 4 times with 100 μl/well of PBS using a Biotek plate washer. […] Plates were washed 4 times again and 50 μl of DPBS were added to all wells prior to sealing the plates with a black adhesive seal. Fluorescence was measured on a Cellomics plate reader.
Data analysis was carried out using the Thermo Scientific HCS Studio software. Briefly, cells were identified using the DAPI nuclear stain and thresholds were set to filter cells out based on shape and size. A second threshold based on green fluorescence intensity (detection of HSV-2 gD) was set to identify HSV-2 infected cells. Data was reported as the average fluorescence intensity of HSV-2 infected cells.

[3] = system: human cryopreserved hepatocytes; test: Stability Assay in Cryopreserved Hepatocytes (human); type: in vitro ADME; settings: 1 μM, calculated from half-life using the well-stirred model
Procedure: Test compound was incubated at 1 μM with either rat or human cryopreserved hepatocytes (BioIVT, Westbury, NY) up to 6 hours at 37° C. in a 24-well plate format (1×10^6 cells/mL per well). At specified time points, samples were transferred to a 96-well plate and quenched with 2 volumes of a solution containing 90% acetonitrile 10% methanol 0.1% formic acid and internal standard. Sample plate was centrifuged at 3200 rpm for 15 min and supernatants transferred to a new plate containing half volume of water. The resulting solution was analyzed by LC-MS/MS. Data (analyte to internal standard peak area ratio) was plotted on a semi-log scale and fitted using an exponential fit. Assuming first order kinetics, the half-life (t1/2) and rate of metabolism were determined. Predicted hepatic clearance was calculated from the half-life using the well-stirred model.

[4] = system: HSV-2 virus (MS strain); test: HSV qPCR Assay (HSV replication in ARPE-19 cells); settings: Human alphaherpesvirus 2, ARPE-19, read-out: EC50 in HSV qPCR assay
Procedure: HSV replication in the presence or absence of compounds was measured by qPCR according to the following procedure: DMSO stock compound solutions (1-10 mM) were serially diluted (2.5-fold) in DMSO in clear round bottom 96-well plates. Compounds were then diluted 1:20 in assay medium (DMEM/F12 Glutamax+2% Fetal bovine serum+1% Penicillin Streptomycin) and 10 μL of these dilutions were added to 96-well tissue culture plates for final starting concentrations between 0.5 and 5 μM.
Cells were resuspended in assay medium, counted, and cell density was adjusted to 2.8E+05 cells/ml with assay medium. […] 90 μL of the infection suspension (25,000 cells) were added to assay plates in which compounds were already added. After an overnight incubation at 37° C., cell culture medium was removed, and cell lysis was performed using the prepGEM Universal kit (MicroGEM cat #PUN1000). Specifically, 100 μL of prepGEM master mix (94.75 μL Water, 5 μL buffer, 0.25 μL enzyme stock) were added to each well and plates were incubated at room temperature for 15 minutes, with the 5 last minutes on a plate shaker. The cell lysates were then transferred to a 96-well PCR compatible microplate (Applied Biosystems, Cat #N8010560). Plates were sealed with a heat resistant plastic sealer and heated on a thermal cycler using the following conditions: 75° C. for 10 min, 95° C. for 5 minutes. Finally, plates were cooled down to room temperature with light shaking before proceeding to the qPCR setup.
Plates were sealed with a clear sealer, spun down, and qPCR reactions were performed in an Applied Biosystems Quantstudio 7 Flex instrument using the following conditions: 95° C. for 2 minutes, then 40 cycles alternating between 95° C. for 5 seconds and 60° C. for 30 seconds.
Analysis was performed using dCT method where dCT=CT (test)−CT (DMSO). Fold change was calculated using the 2^^dCT equation. This fold change was then converted to percentage relative to DMSO control (no drug). EC50s were determined by non-linear regression analysis using GraphPad Prism software.

[5] = read-out: EC50-HSV2-10% Human Serum

CC[C@@H]1Cc2cc(F)c(S(N)(=O)=O)cc2N1C(=O)[C@@H]1Cc2ccc(-c3ccccn3)cc2C1 [Example 113]
CC50 at 5 days [1]: ≥ 10000 nM
EC50 [2, 5]: 168 nM
EC50 ([2]; read-out: EC50-HSV2-FBS): 19 nM

NS(=O)(=O)c1ccc2c(c1)N(C(=O)[C@H]1Cc3ccc(-c4cnccn4)cc3C1)CC2 [Example 86, (S)-1-(5-(pyrazin-2-yl)-2,3-dihydro-1H-indene-2-carbonyl)indoline-6-sulfonamide]
CC50 at 5 days [1]: 28500 nM
EC50 ([2]; read-out: EC50-HSV2-FBS): 455 nM

NS(=O)(=O)c1ccc2c(c1)N(C(=O)C1Cc3ccc(-c4cscn4)cc3C1)CC2 (stereo not shown) [Example 19]
CC50 at 5 days [1]: 37700 nM
EC50 [2, 5]: ≥ 25000 nM
EC50 ([2]; read-out: EC50-HSV2-FBS): 23 nM

NS(=O)(=O)c1cc2c(cc1F)CCN2C(=O)C1Cc2ccc(-c3ccccn3)cc2O1 (stereo not shown) [Example 116, 5-fluoro-1-(6-(pyridin-2-yl)-2,3-dihydrobenzofuran-2-carbonyl)indoline-6-sulfonamide]
Predicted human hepatic clearance [3]: 0.83 mL/min/kg
EC50 [2, 5]: 489 nM
EC50 ([2]; read-out: EC50-HSV2-FBS): 42 nM

Cc1cccc(C)c1N(CC(=O)Nc1ccc(-c2ncon2)cc1)C(=O)C1CCS(=O)(=O)CC1 [amenamevir, reference compound]
EC50 [4]: 14 nM

NS(=O)(=O)c1ccc2c(c1)N(C(=O)[C@@H]1Cc3ccc(-c4cccc(F)n4)cc3C1)CC2 [Example 85, (R)-1-(5-(6-fluoropyridin-2-yl)-2,3-dihydro-1H-indene-2-carbonyl)indoline-6-sulfonamide]
CC50 at 5 days [1]: 330 nM
EC50 [2, 5]: 7500 nM
EC50 ([2]; read-out: EC50-HSV2-FBS): 8.9 nM

Cc1cc2c(cc1S(N)(=O)=O)N(C(=O)[C@@H]1Cc3ccc(-c4ccccn4)cc3C1)[C@H](C)C2 [Example 63, (R)-2,5-dimethyl-1-((R)-5-(pyridin-2-yl)-2,3-dihydro-1H-indene-2-carbonyl)indoline-6-sulfonamide]
CC50 at 5 days [1]: ≥ 10000 nM
EC50 [2, 5]: 912 nM
EC50 ([2]; read-out: EC50-HSV2-FBS): 25 nM

C[C@@H]1Cc2ccc(S(N)(=O)=O)cc2N1C(=O)C1Cc2cc(-c3ccccn3)ccc2O1 (stereo partly shown) [Example 57]
CC50 at 5 days [1]: ≥ 10000 nM
EC50 [2, 5]: 381 nM
EC50 ([2]; read-out: EC50-HSV2-FBS): 35 nM

NS(=O)(=O)c1ccc2c(c1)N(C(=O)[C@@H]1Cc3ccc(-c4ccncc4)cc3C1)CC2 [Example 131, (R)-1-(5-(pyridin-4-yl)-2,3-dihydro-1H-indene-2-carbonyl)indoline-6-sulfonamide]
Predicted human hepatic clearance [3]: 9.5 mL/min/kg
EC50 [2, 5]: ≥ 10000 nM
EC50 ([2]; read-out: EC50-HSV2-FBS): 753 nM

NS(=O)(=O)c1ccc2c(c1)N(C(=O)[C@@H]1Cc3ccc(-c4cnccn4)cc3C1)CC2 [Example 87, (R)-1-(5-(pyrazin-2-yl)-2,3-dihydro-1H-indene-2-carbonyl)indoline-6-sulfonamide]
CC50 at 5 days [1]: 306 nM
Predicted human hepatic clearance [3]: 5.17 mL/min/kg
EC50 [2, 5]: 3280 nM
EC50 ([2]; read-out: EC50-HSV2-FBS): 13 nM

C[C@@H]1[C@@H](C)c2cc(F)c(S(N)(=O)=O)cc2N1C(=O)[C@@H]1Cc2ccc(-c3ccccn3)cc2C1 [Example 46, (2R,3S)-5-fluoro-2,3-dimethyl-1-((R)-5-(pyridin-2-yl)-2,3-dihydro-1H-indene-2-carbonyl)indoline-6-sulfonamide]
CC50 at 5 days [1]: ≥ 10000 nM
EC50 [2, 5]: 143 nM
EC50 ([2]; read-out: EC50-HSV2-FBS): 16 nM

NS(=O)(=O)c1ccc2c(c1)N(C(=O)[C@@H]1Cc3ccc(-c4cccnc4)cc3C1)CC2 [Example 130, (R)-1-(5-(pyridin-3-yl)-2,3-dihydro-1H-indene-2-carbonyl)indoline-6-sulfonamide]
Predicted human hepatic clearance [3]: 7.5 mL/min/kg
EC50 [2, 5]: ≥ 10000 nM
EC50 ([2]; read-out: EC50-HSV2-FBS): 110 nM

C[C@@H]1Cc2cc(F)c(S(N)(=O)=O)cc2N1C(=O)[C@@H]1Cc2ccc(-c3cc(F)ccc3Cl)cc2C1 [Example 50, (R)-1-((R)-5-(2-chloro-5-fluorophenyl)-2,3-dihydro-1H-indene-2-carbonyl)-5-fluoro-2-methylindoline-6-sulfonamide]
CC50 at 5 days [1]: ≥ 10000 nM
EC50 [2, 5]: 214 nM
EC50 ([2]; read-out: EC50-HSV2-FBS): 61 nM

NS(=O)(=O)c1ccc2c(c1)N(C(=O)C1Cc3ccc(-n4cccn4)cc3C1)CC2 (stereo not shown) [Example 78, 1-(5-(1H-pyrazol-1-yl)-2,3-dihydro-1H-indene-2-carbonyl)indoline-6-sulfonamide]
CC50 at 5 days [1]: ≥ 50000 nM
EC50 [2, 5]: 20700 nM
EC50 ([2]; read-out: EC50-HSV2-FBS): 65 nM

C[C@H]1Cc2cc(F)c(S(N)(=O)=O)cc2N1C(=O)[C@@H]1Cc2ccc(-c3ccccn3)cc2C1 [Example 34]
Predicted human hepatic clearance [3]: 3.33 mL/min/kg
EC50 [2, 5]: 1570 nM
EC50 ([2]; read-out: EC50-HSV2-FBS): 158 nM
